Data as given in publication PMC5515969, “Effects of 31 FDA approved small-molecule kinase inhibitors on isolated rat liver mitochondria” (Archives of Toxicology, 2016).
Like-named read-outs stand apart in the source and are kept apart here.

Tests used:
[1] = system: isolated rat liver mitochondria; assay: Mitochondrial swelling (absorbance at 535 nm); type: biochemical; settings: difference in signal between KI and DMSO treated samples at the end of experiments; for Swelling 5XCmax: key: 0 indicates that the drug had no effects (negative)
[2] = system: isolated rat liver mitochondria; settings: positive control alamethicin treated samples
[3] = system: isolated rat liver mitochondria; assay: Mitochondrial inner membrane potential (MMP), Rhodamine 123; type: biochemical; settings: difference in signal between KI and DMSO treated samples at the end of experiments
Source text: Fig. 3 KI effects on mitochondrial inner membrane potential (MMP). […] In a, c, data are means and standard derivations from three separate experiments. *p < 0.05 as compared to DMSO-treated samples at the end of experiments. In b, data are means of two independent experiments

RCC IV = RCC IV activity in submitochondrial particles; type: biochemical, rat; parameters: key to RCC IV at 50XCmax / RCC IV at 100XCmax: activity relative to DMSO-treated controls (control set as 1 = 100%)
How it was run: (§1)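 Absorbance kinetics: A340 (RCC I, V) and A600 (RCC II) read each minute over 6 min, A550 (RCC III, IV) every 10 s over 2 min; RCC I taken as […]. Particles (1 mg/ml) pretreated 15 min with compound; DMSO-treated activity = 1.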

RCC III = RCC III activity in submitochondrial particles; type: biochemical, rat; parameters: key to RCC III at 100XCmax: activity relative to DMSO-treated controls (control set as 1 = 100%)
How it was run: as §1

[4] = cited from earlier work
[5] = therapeutic maximal blood concentration; ref product labeling; cited from earlier work
[6] = system: isolated rat liver mitochondria; assay: Mitochondrial ROS production (CM-H2DCFDA); settings: DMSO treated samples set as 1
[7] = system: isolated rat liver mitochondria; assay: Mitochondrial oxygen consumption (glutamate/malate or succinate driven, state 4 and state 3); type: biochemical; settings: DMSO treated samples set as 1; for State 3 respiration driven by succinate at 10XCmax: key: 0 indicates that the drug had no effects (negative); for State 3 respiration driven by succinate at 1XCmax: key: 0 indicates that the drug had no effects (negative)
How it was run: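 Oxygen uptake on glutamate/malate or on succinate defined state 4; ADP added 3 min later gave state 3. Mitochondria isolated from rat liver by differential centrifugation, adjusted to 1 mg/ml and pretreated 5 min with inhibitor (0.1% DMSO final). Values relative to DMSO control, set to 1.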

[8] = 100-fold Cmax, 15 min, DMSO-treated = 100

With `COc1cc(Nc2c(C#N)cnc3cc(OCCCN4CCN(C)CC4)c(OC)cc23)c(Cl)cc1Cl` [Bosutinib] the “Swelling 1XCmax” value ([1]; 1XCmax) was 0, the “Swelling 2.5XCmax” value ([1]; 2.5XCmax) was 0 and the “Swelling 5XCmax” value ([1]; 5XCmax) was 0. For the same compound, the “Swelling 10XCmax” value ([1]; 10XCmax) was 0, the “Swelling 20XCmax” value ([1]; 20XCmax) was 0 and the “Swelling 30XCmax” value ([1]; 30XCmax) was 0. For the same compound, the “Swelling 50XCmax” value ([1]; 50XCmax) was 0, the “Swelling 100XCmax” value ([1]; 100XCmax) was 0 and the “Cytochrome c release 1XCmax” value ([2]; 1XCmax) was 0. For the same compound, the “Cytochrome c release 2.5XCmax” value ([2]; 2.5XCmax) was 0, the “Cytochrome c release 5XCmax” value ([2]; 5XCmax) was 0 and the “Cytochrome c release 10XCmax” value ([2]; 10XCmax) was 0. For the same compound, the “Cytochrome c release 20XCmax” value ([2]; 20XCmax) was 0, the “Cytochrome c release 30XCmax” value ([2]; 30XCmax) was 0 and the “Cytochrome c release 50XCmax” value ([2]; 50XCmax) was 0. The “Cytochrome c release 100XCmax” value ([2]; 100XCmax) was 0, the “MMP measured by Rhodamine 123 at 1XCmax” value ([3]; 1XCmax) was 0 and the “MMP measured by Rhodamine 123 at 2.5XCmax” value ([3]; 2.5XCmax) was 0. The “MMP measured by Rhodamine 123 at 5XCmax” value ([3]; 5XCmax) was 0, the “MMP measured by Rhodamine 123 at 10XCmax” value ([3]; 10XCmax) was 0 and the “MMP measured by Rhodamine 123 at 20XCmax” value ([3]; 20XCmax) was 0. The “MMP measured by Rhodamine 123 at 30XCmax” value ([3]; 30XCmax) was 0, the “MMP measured by Rhodamine 123 at 50XCmax” value ([3]; 50XCmax) was 0 and the “MMP measured by Rhodamine 123 at 100XCmax” value ([3]; 100XCmax) was 0. The “RCC IV at 50XCmax” value (RCC IV; 50XCmax, relative to DMSO treated samples, in %) was 0, the “RCC activity IV” value (RCC IV; [8]) was 101.25 ± 2.26 % of control and the “RCC activity III” value (RCC III; [8]) was 101.81 ± 4.43 % of control. For the same compound, the “RCC III at 100XCmax” value (RCC III; 100XCmax, relative to DMSO treated samples) was 0, the “DILI potential (based on labeling)” value ([4]; 1 = DILI positive, 0 = negative, ref product labeling) was 1 and the “Labeling for DILI” value ([4]; BBW: black box warning, W&P: Warnings and Precautions, ref product labeling) was “W&P: ALT↑”. The “labeling for DILI” value ([4]; W&P warnings and precautions, BBW black box warnings, ref FDA product labeling) was “W&P: ALT↑/monitoring”, the “DILI potential (based on labeling)” value ([4]; ref FDA product labeling) was 1 and the “Cmax” value [5] was 200 ng/mL. For the same compound, the “ROS measured by CM-H2DCFDA at 1XCmax” value ([6]; 1XCmax) was 0, the “ROS measured by CM-H2DCFDA at 2.5XCmax” value ([6]; 2.5XCmax) was 0 and the “ROS measured by CM-H2DCFDA at 5XCmax” value ([6]; 5XCmax) was 0. For the same compound, the “ROS measured by CM-H2DCFDA at 10XCmax” value ([6]; 10XCmax) was 0, the “ROS measured by CM-H2DCFDA at 20XCmax” value ([6]; 20XCmax) was 0 and the “ROS measured by CM-H2DCFDA at 30XCmax” value ([6]; 30XCmax) was 0. For the same compound, the “ROS measured by CM-H2DCFDA at 50XCmax” value ([6]; 50XCmax) was 0, the “ROS measured by CM-H2DCFDA at 100XCmax” value ([6]; 100XCmax) was 0 and the “State 3 respiration driven by glutamate/malate at 1XCmax” value ([7]; 1XCmax) was 0. For the same compound, the “State 3 respiration driven by succinate at 1XCmax” value ([7]; 1XCmax) was 0, the “State 4 respiration driven by glutamate/malate at 1XCmax” value ([7]; 1XCmax) was 0 and the “State 4 respiration driven by succinate at 1XCmax” value ([7]; 1XCmax) was 0. For the same compound, the “State 3 respiration driven by glutamate/malate at 2.5XCmax” value ([7]; 2.5XCmax) was 0, the “State 3 respiration driven by succinate at 2.5XCmax” value ([7]; 2.5XCmax) was 0 and the “State 4 respiration driven by glutamate/malate at 2.5XCmax” value ([7]; 2.5XCmax) was 0. The “State 4 respiration driven by succinate at 2.5XCmax” value ([7]; 2.5XCmax) was 0, the “State 3 respiration driven by glutamate/malate at 5XCmax” value ([7]; 5XCmax) was 0 and the “State 3 respiration driven by succinate at 5XCmax” value ([7]; 5XCmax) was 0. For the same compound, the “State 4 respiration driven by glutamate/malate at 5XCmax” value ([7]; 5XCmax) was 0, the “State 4 respiration driven by succinate at 5XCmax” value ([7]; 5XCmax) was 0 and the “State 3 respiration driven by glutamate/malate at 10XCmax” value ([7]; 10XCmax) was 0. For the same compound, the “State 3 respiration driven by succinate at 10XCmax” value ([7]; 10XCmax) was 0, the “State 4 respiration driven by glutamate/malate at 10XCmax” value ([7]; 10XCmax) was 0 and the “State 4 respiration driven by succinate at 10XCmax” value ([7]; 10XCmax) was 0. The “State 3 respiration driven by glutamate/malate at 20XCmax” value ([7]; 20XCmax) was 0, the “State 3 respiration driven by succinate at 20XCmax” value ([7]; 20XCmax) was 0 and the “State 4 respiration driven by glutamate/malate at 20XCmax” value ([7]; 20XCmax) was 0. The “State 4 respiration driven by succinate at 20XCmax” value ([7]; 20XCmax) was 0, the “State 3 respiration driven by glutamate/malate at 30XCmax” value ([7]; 30XCmax) was 0 and the “State 3 respiration driven by succinate at 30XCmax” value ([7]; 30XCmax) was 0. For the same compound, the “State 4 respiration driven by glutamate/malate at 30XCmax” value ([7]; 30XCmax) was 0, the “State 4 respiration driven by succinate at 30XCmax” value ([7]; 30XCmax) was 0 and the “State 3 respiration driven by glutamate/malate at 50XCmax” value ([7]; 50XCmax) was 0. For the same compound, the “State 3 respiration driven by succinate at 50XCmax” value ([7]; 50XCmax) was 0, the “State 4 respiration driven by glutamate/malate at 50XCmax” value ([7]; 50XCmax) was 0 and the “State 4 respiration driven by succinate at 50XCmax” value ([7]; 50XCmax) was 0. The “State 3 respiration driven by glutamate/malate at 100XCmax” value ([7]; 100XCmax) was 0, the “State 3 respiration driven by succinate at 100XCmax” value ([7]; 100XCmax) was 0 and the “State 4 respiration driven by glutamate/malate at 100XCmax” value ([7]; 100XCmax) was 0. For the same compound, the “State 4 respiration driven by succinate at 100XCmax” value ([7]; 100XCmax) was 0.
